A word on the EC50: it is the concentration that produces a half-maximal response.

Drawing on patent publication US8697727B2, “N-substituted-heterocycloalkyloxybenzamide compounds and methods of use” (Rigel Pharmaceuticals, Inc., priority 2006, dated 2014), this text covers EC50 for 33 molecules.

This experiment concerns AMPK. The experiment is described as follows: AMPK activation, enzyme-linked immunosorbent assay. Format: cell-based. Put shortly: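 Each compound's EC50 for AMPK activation was the endpoint. In a cell-based assay, AMPK activity was read out as the relative concentration of phosphorylated acetyl-CoA carboxylase, a product of AMPK, measured by enzyme-linked immunosorbent assay. Values fell into the ranges less than 1 μM, 1-10 μM, 10-20 μM, 20-50 μM, 50-100 μM, and >100 μM.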

As for `CC(C)(C)C(=O)N1CCC(NC(=O)c2ccc(OC3CCN(c4ccc(C(F)(F)F)cc4)CC3)c(F)c2)CC1` [Compound 30, 3-fluoro-N-(1-pivaloylpiperidin-4-yl)-4-(1-(4-(trifluoromethyl)phenyl)piperidin-4-yloxy)benzamide], the concentration giving a half-maximal response (EC50) was less than 1000 nM.

With `O=C(NC1CCN(C(=O)c2ccc(F)cc2)CC1)c1ccc(OC2CCN(c3ccc(C(F)(F)F)cc3)CC2)c(F)c1` [Compound 31, 3-fluoro-N-(1-(4-fluorobenzoyl)piperidin-4-yl)-4-(1-(4-(trifluoromethyl)phenyl)piperidin-4-yloxy)benzamide], the EC50 was less than 1000 nM.

In turn, `O=C(NC1CCN(Cc2ccccn2)CC1)c1ccc(OC2CCN(c3ccc(C(F)(F)F)cc3)CC2)c(F)c1` [Compound 32, 3-fluoro-N-(1-(pyridin-2-ylmethyl)piperidin-4-yl)-4-(1-(4-(trifluoromethyl)phenyl)piperidin-4-yloxy)benzamide] came in with an EC50 of less than 1000 nM.

With `COC(=O)c1ccc(CN2CCC(NC(=O)c3ccc(OC4CCN(c5ccc(C(F)(F)F)cc5)CC4)c(F)c3)CC2)cc1` [Compound 33, methyl 4-((4-(3-fluoro-4-(1-(4-(trifluoromethyl)phenyl)piperidin-4-yloxy)benzamido)piperidin-1-yl)methyl)benzoate], the EC50 is less than 1000 nM.

Consider `CC(C)S(=O)(=O)N1CCC(NC(=O)c2ccc(OC3CCN(c4ccc(C(F)(F)F)cc4)CC3)c(F)c2)CC1` [Compound 34, 3-fluoro-N-(1-(isopropylsulfonyl)piperidin-4-yl)-4-(1-(4-(trifluoromethyl)phenyl)piperidin-4-yloxy)benzamide], for which the EC50 was less than 1000 nM.

In turn, `O=C(O)c1ccc(CN2CCC(NC(=O)c3ccc(OC4CCN(c5ccc(C(F)(F)F)cc5)CC4)c(F)c3)CC2)cc1` [Compound 35, 4-((4-(3-fluoro-4-(1-(4-(trifluoromethyl)phenyl)piperidin-4-yloxy)benzamido)piperidin-1-yl)methyl)benzoic acid] registered an EC50 of 1000 to 10000 nM.

The molecule `CC(C)(C)c1ccc(CN2CCC(Oc3ccc(C(=O)NC4CCN(c5ccccc5)CC4)cc3F)CC2)cc1` [Compound 36, 4-(1-(4-tert-butylbenzyl)piperidin-4-yloxy)-3-fluoro-N-(1-phenylpiperidin-4-yl)benzamide] returned an EC50 of less than 1000 nM.

On to `O=C(NC1CCN(Cc2ccccc2)CC1)c1ccc(OC2CCN(Cc3ccncc3)CC2)c(F)c1` [Compound 37, N-(1-benzylpiperidin-4-yl)-3-fluoro-4-(1-(pyridin-4-ylmethyl)piperidin-4-yloxy)benzamide], for which the EC50 is less than 1000 nM.

`O=C(NC1CCN(Cc2ccccc2)CC1)c1ccc(OC2CCN(Cc3cccnc3)CC2)c(F)c1` [Compound 38, N-(1-benzylpiperidin-4-yl)-3-fluoro-4-(1-(pyridin-3-ylmethyl)piperidin-4-yloxy)benzamide]: the concentration giving a half-maximal response (EC50) was 1000 to 10000 nM.

In the case of `O=C(NC1CCN(Cc2ccccc2)CC1)c1ccc(OC2CCN(Cc3ccccn3)CC2)c(F)c1` [Compound 39, N-(1-benzylpiperidin-4-yl)-3-fluoro-4-(1-(pyridin-2-ylmethyl)piperidin-4-yloxy)benzamide], the EC50 is 1000 to 10000 nM.

`O=C(NC1CCN(C(=O)c2ccncc2)CC1)c1ccc(OC2CCN(c3ccc(C(F)(F)F)cc3)CC2)c(F)c1` [Compound 40, 3-fluoro-N-(1-isonicotinoylpiperidin-4-yl)-4-(1-(4-(trifluoromethyl)phenyl)piperidin-4-yloxy)benzamide] displayed an EC50 of less than 1000 nM.

Consider `N#Cc1ccc(CN2CCC(Oc3ccc(C(=O)NC4CCN(Cc5ccccc5)CC4)cc3F)CC2)cc1` [Compound 41, N-(1-benzylpiperidin-4-yl)-4-(1-(4-cyanobenzyl)piperidin-4-yloxy)-3-fluorobenzamide], for which the EC50 is less than 1000 nM.

With `Cc1ccc(CN2CCC(Oc3ccc(C(=O)NC4CCN(Cc5ccccc5)CC4)cc3F)CC2)cc1` [Compound 42, N-(1-benzylpiperidin-4-yl)-3-fluoro-4-(1-(4-methylbenzyl)piperidin-4-yloxy)benzamide], the EC50 was less than 1000 nM.

The molecule `N#Cc1ccc(CN2CCC(NC(=O)c3ccc(OC4CCN(c5ccc(C(F)(F)F)cc5)CC4)c(F)c3)CC2)cc1` [Compound 43, N-(1-(4-cyanobenzyl)piperidin-4-yl)-3-fluoro-4-(1-(4-(trifluoromethyl)phenyl)piperidin-4-yloxy)benzamide] had an EC50 of less than 1000 nM.

`N#Cc1ccc(N2CCC(Oc3ccc(C(=O)NC4CCN(Cc5ccncc5)CC4)cc3F)CC2)cc1` [Compound 44, 4-(1-(4-cyanophenyl)piperidin-4-yloxy)-3-fluoro-N-(1-(pyridin-4-ylmethyl)piperidin-4-yl)benzamide] showed an EC50 of less than 1000 nM.

`N#Cc1ccc(CN2CCC(NC(=O)c3ccc(OC4CCN(c5ccc(C#N)cc5)CC4)c(F)c3)CC2)cc1` [Compound 45, N-(1-(4-cyanobenzyl)piperidin-4-yl)-4-(1-(4-cyanophenyl)piperidin-4-yloxy)-3-fluorobenzamide] showed an EC50 of less than 1000 nM.

As to `O=C(NC1CCN(Cc2ccccc2)CC1)c1cccc(OC2CCN(c3ccc(C(F)(F)F)cc3)CC2)c1` [Compound 46, N-(1-benzylpiperidin-4-yl)-3-(1-(4-(trifluoromethyl)phenyl)piperidin-4-yloxy)benzamide], the EC50 was less than 1000 nM.

The molecule `O=C(NC1CCN(Cc2ccccc2)CC1)c1ccc(OC2CCN(c3ccc(C(F)(F)F)cc3)CC2)cc1Cl` [Compound 47, N-(1-benzylpiperidin-4-yl)-2-chloro-4-(1-(4-(trifluoromethyl)phenyl)piperidin-4-yloxy)benzamide] returned an EC50 of less than 1000 nM.

Regarding `N#Cc1ccc(N2CCC(Oc3cccc(C(=O)NC4CCN(Cc5ccccc5)CC4)c3)CC2)cc1` [Compound 48, N-(1-benzylpiperidin-4-yl)-3-(1-(4-cyanophenyl)piperidin-4-yloxy)benzamide], the EC50 was less than 1000 nM.

The molecule `N#Cc1ccc(N2CCC(Oc3ccc(C(=O)NC4CCN(Cc5ccccc5)CC4)c(Cl)c3)CC2)cc1` [Compound 49, N-(1-benzylpiperidin-4-yl)-2-chloro-4-(1-(4-cyanophenyl)piperidin-4-yloxy)benzamide] returned an EC50 of less than 1000 nM.

For the molecule `N#Cc1ccc(CN2CCC(Oc3cccc(C(=O)NC4CCN(Cc5ccccc5)CC4)c3)CC2)cc1` [Compound 50, N-(1-benzylpiperidin-4-yl)-3-(1-(4-cyanobenzyl)piperidin-4-yloxy)benzamide], the EC50 lay in the range of 1000 to 10000 nM.

Molecule `N#Cc1ccc(CN2CCC(Oc3ccc(C(=O)NC4CCN(Cc5ccccc5)CC4)c(Cl)c3)CC2)cc1` [Compound 51, N-(1-benzylpiperidin-4-yl)-2-chloro-4-(1-(4-cyanobenzyl)piperidin-4-yloxy)benzamide] registered an EC50 of less than 1000 nM.

`O=C(NC1CCN(Cc2ccccc2)CC1)c1cccc(OC2CCN(Cc3ccc(C(F)(F)F)cc3)CC2)c1` [Compound 52, N-(1-benzylpiperidin-4-yl)-3-(1-(4-(trifluoromethyl)benzyl)piperidin-4-yloxy)benzamide] showed an EC50 of 1000 to 10000 nM.

`O=C(NC1CCN(Cc2ccccc2)CC1)c1cccc(OC2CCN(c3ccncc3)CC2)c1` [Compound 53, N-(1-benzylpiperidin-4-yl)-3-(1-(pyridin-4-yl)piperidin-4-yloxy)benzamide] showed an EC50 of 10000 to 20000 nM.

In turn, `O=C(NC1CCN(Cc2ccccc2)CC1)c1ccc(OC2CCN(Cc3ccc(OC(F)(F)F)cc3)CC2)c(Cl)c1` [Compound 54, N-(1-benzylpiperidin-4-yl)-3-chloro-4-(1-(4-(trifluoromethoxy)benzyl)piperidin-4-yloxy)benzamide] displayed an EC50 of less than 1000 nM.

In the case of `O=C(NC1CCN(Cc2ccccc2)CC1)c1ccc(OC2CCN(Cc3ccc(C(F)(F)F)cc3)CC2)c(F)c1` [Compound 55, N-(1-benzylpiperidin-4-yl)-3-fluoro-4-(1-(4-(trifluoromethyl)benzyl)piperidin-4-yloxy)benzamide], the EC50 was less than 1000 nM.

Turning to `O=C(NC1CCN(Cc2ccccc2)CC1)c1ccc(OC2CCN(Cc3ccc(C(F)(F)F)cc3)CC2)c(Cl)c1` [Compound 56, N-(1-benzylpiperidin-4-yl)-3-chloro-4-(1-(4-(trifluoromethyl)benzyl)piperidin-4-yloxy)benzamide], the EC50 was less than 1000 nM.

For `O=C(NC1CCN(Cc2ccccc2)CC1)c1ccc(OC2CCN(Cc3ccc(OC(F)(F)F)cc3)CC2)c(F)c1` [Compound 57, N-(1-benzylpiperidin-4-yl)-3-fluoro-4-(1-(4-(trifluoromethoxy)benzyl)piperidin-4-yloxy)benzamide], the EC50 is less than 1000 nM.

`CN1CCC(NC(=O)c2ccc(OC3CCN(Cc4ccc(C(F)(F)F)cc4)CC3)c(Cl)c2)CC1` [Compound 58, 3-chloro-N-(1-methylpiperidin-4-yl)-4-(1-(4-(trifluoromethyl)benzyl)piperidin-4-yloxy)benzamide] returned an EC50 of 1000 to 10000 nM.

The molecule `O=C(NC1CCN(Cc2ccccc2)CC1)c1ccc(OC2CCN(Cc3cccc(C(F)(F)F)c3)CC2)c(F)c1` [Compound 59, N-(1-benzylpiperidin-4-yl)-3-fluoro-4-(1-(3-(trifluoromethyl)benzyl)piperidin-4-yloxy)benzamide] had an EC50 of less than 1000 nM.

Take `O=C(NC1CCN(Cc2ccccc2)CC1)c1ccc(OC2CCN(Cc3cccc(C(F)(F)F)c3)CC2)c(Cl)c1` [Compound 60, N-(1-benzylpiperidin-4-yl)-3-chloro-4-(1-(3-(trifluoromethyl)benzyl)piperidin-4-yloxy)benzamide]: the EC50 is less than 1000 nM.

Turning to `O=C(NC1CCN(Cc2ccccc2)CC1)c1ccc(OC2CCN(Cc3ccc(F)cc3)CC2)c(F)c1` [Compound 61, N-(1-benzylpiperidin-4-yl)-3-fluoro-4-(1-(4-fluorobenzyl)piperidin-4-yloxy)benzamide], the EC50 is less than 1000 nM.

As for `O=C(NC1CCN(Cc2ccccc2)CC1)c1cc(Cl)c(OC2CCN(Cc3cccc(C(F)(F)F)c3)CC2)c(Cl)c1` [Compound 62, N-(1-benzylpiperidin-4-yl)-3,5-dichloro-4-(1-(3-(trifluoromethyl)benzyl)piperidin-4-yloxy)benzamide], the EC50 is less than 1000 nM.
